Measurements: ChEMBL document CHEMBL6087476, “Positive Charge-Concentrated Dimeric Lipopeptides with Enhanced Protease Resistance: A Potential Solution for Systemic Bacterial Infections” (J Med Chem, 2025)
Converted amounts (≈) assume the structure as drawn. The source made the active and inactive calls. The rule behind the calls is not given here.

What was measured:
[1] = test system: Escherichia coli; test: Antimicrobial activity against Escherichia coli K88 assessed as increase in absorbance incubated for 20 to 22 hrs; assay type: functional; details: time 20-22 hrs
[2] = test system: Escherichia coli; test: Antimicrobial activity against Escherichia coli K99 assessed as increase in absorbance incubated for 20 to 22 hrs; assay type: functional; details: time 20-22 hrs
[3] = test system: Salmonella typhimurium; test: Antimicrobial activity against Salmonella typhimurium 14028 assessed as increase in absorbance incubated for 20 to 22 hrs; assay type: functional, Salmonella enterica subsp. enterica serovar Typhimurium; details: Salmonella enterica, time 20-22 hrs
[4] = test system: Staphylococcus aureus; test: Antimicrobial activity against methicillin-resistant Staphylococcus aureus 43300 assessed as increase in absorbance incubated for 20 to 22 hrs; assay type: functional; details: time 20-22 hrs
[5] = test system: Staphylococcus epidermidis; test: Antimicrobial activity against Staphylococcus epidermidis 12228 assessed as increase in absorbance incubated for 20 to 22 hrs; assay type: functional; details: time 20-22 hrs
[6] = Hemolytic activity in healthy human RBC assessed as hemolysis incubated for 1 hr by microplate reader; assay type: toxicity, cell-based; details: erythrocyte
[7] = Cytotoxicity against porcine IPEC-J2 cells assessed as cell death measured after 18 to 24 hrs by MTT assay; assay type: functional; details: Sus scrofa, time 18-24 hrs
[8] = test system: Acinetobacter baumannii; test: Antimicrobial activity against Acinetobacter baumannii AB1902 assessed as increase in absorbance incubated for 20 to 22 hrs; assay type: functional; details: time 20-22 hrs
[9] = test system: Escherichia coli; test: Antimicrobial activity against Escherichia coli ATCC 25922 assessed as increase in absorbance incubated for 20 to 22 hrs in presence of Fe3+ physiological salt; assay type: functional, organism-based; details: time 20-22 hrs
[10] = test system: Escherichia coli; test: Antimicrobial activity against Escherichia coli ATCC 25922 assessed as increase in absorbance incubated for 20 to 22 hrs in presence of Mg2+ physiological salt; assay type: functional, organism-based; details: time 20-22 hrs
[11] = test system: Escherichia coli; test: Antimicrobial activity against Escherichia coli ATCC 25922 assessed as increase in absorbance incubated for 20 to 22 hrs in presence of […] physiological salt; assay type: functional, organism-based; details: time 20-22 hrs
[12] = test system: Escherichia coli; test: Antimicrobial activity against Escherichia coli ATCC 25922 assessed as increase in absorbance incubated for 20 to 22 hrs in presence of NH4+ physiological salt; assay type: functional, organism-based; details: time 20-22 hrs
[13] = test system: Escherichia coli; test: Antimicrobial activity against Escherichia coli ATCC 25922 assessed as increase in absorbance incubated for 20 to 22 hrs in presence of K+ physiological salt; assay type: functional, organism-based; details: time 20-22 hrs
[14] = test system: Escherichia coli; test: Antimicrobial activity against Escherichia coli ATCC 25922 assessed as increase in absorbance incubated for 4 hrs in presence of 25% serum; assay type: functional, organism-based
[15] = test system: Escherichia coli; test: Antimicrobial activity against Escherichia coli ATCC 25922 assessed as increase in absorbance incubated for 4 hrs in presence of 50% serum; assay type: functional, organism-based
[16] = test system: Escherichia coli; test: Antimicrobial activity against Escherichia coli ATCC 25922 assessed as increase in absorbance at 8 mg/ml incubated for 8 hrs in presence of pepsin; assay type: functional, organism-based
[17] = target: Trypsin (Homo sapiens, UniProt P07477+P07478+P35030); test: Stability of compound assessed as trypsin (unknown origin)-mediated compound structural integrity change at 8 mg/ml incubated for 1 to 8 hrs by RP-HPLC analysis; assay type: ADME, protein assay; details: time 1-8 hrs
[18] = target: Chymotrypsin (Homo sapiens, UniProt Q99895+P17538+P40313+Q6GPI1); test: Stability of compound assessed as chymotrypsin (unknown origin)-mediated compound structural integrity change at 8 mg/ml incubated for 1 to 8 hrs by RP-HPLC analysis; assay type: ADME, protein assay; details: time 1-8 hrs
[19] = test system: Escherichia coli; test: Antibiofilm activity against Escherichia coli ATCC 25922 biofilm assessed as inhibition of biofilm formation at 2 uM; assay type: functional, organism-based
[20] = test system: Cell membrane; test: Induction of Outer membrane permeability in Escherichia coli ATCC 25922 incubated for 30 mins by N-phenyl-1-naphthylamine (NPN) uptake assay; assay type: subcellular; details: dose 1-16 µM
[21] = test system: Escherichia coli; test: Reduction in intracellular ATP level in Escherichia coli ATCC 25922 at 2 uM measured after 1 hr incubation by Enhanced ATP assay kit; assay type: functional; parameters: scale not given: the % may be the effect or the level left
[22] = test system: Escherichia coli; test: Induction of membrane damage in Escherichia coli ATCC 25922 assessed as ruptured membrane by analysing green fluorescence at 8 uM measured after 1 hr incubation by SYTO - live and dead staining based fluorescence microscopy; assay type: functional, organism-based
[23] = test system: Escherichia coli; test: Bactericidal activity against Escherichia coli ATCC 25922 assessed as reduction in bacterial viability; assay type: functional, organism-based
[24] = test system: Escherichia coli; test: Bactericidal activity against Escherichia coli ATCC 25922 assessed as reduction in bacterial viability at 4 uM measured within 30 mins; assay type: functional; details: 0.5 h
[25] = test system: Escherichia coli; test: Bactericidal activity against Escherichia coli ATCC 25922 assessed as reduction in bacterial viability at 4 uM measured within 1 hr; assay type: functional
[26] = test system: Escherichia coli; test: Resistance fold, ratio of MIC for Escherichia coli ATCC 25922 measured after 30 day passage period to MIC for Escherichia coli ATCC 25922; assay type: functional
[27] = Toxicity in ICR mouse assessed as slight manifestation of stooping at 20 mg/kg, ip measured within 1 hr; assay type: organism-based; details: in vivo
[28] = Toxicity in ICR mouse assessed as humpbacking at 20 mg/kg, ip measured within 1 hr; assay type: organism-based; details: in vivo
[29] = Toxicity in ICR mouse assessed as slight manifestation of stooping at 20 mg/kg, ip measured after 1 hr; assay type: organism-based; details: in vivo
[30] = Toxicity in ICR mouse assessed as humpbacking at 20 mg/kg, ip measured after 1 hr; assay type: organism-based; details: in vivo
[31] = Toxicity in ICR mouse assessed as reduced mobility at 20 mg/kg, ip measured after 1 hr; assay type: organism-based; details: in vivo
[32] = Toxicity in ICR mouse assessed as body weight change at 5 to 20 mg/kg, ip measured after 3 days; assay type: organism-based; details: in vivo, 72 h, dose 5-20 mg/kg, time 3 day
[33] = Toxicity in ICR mouse assessed as kidney weight change at 5 to 20 mg/kg, ip measured after 3 days; assay type: organism-based; details: in vivo, 72 h, dose 5-20 mg/kg, time 3 day
[34] = Toxicity in ICR mouse assessed as aspartate aminotransferase (AST) level in serum at 5 to 20 mg/kg, ip measured after 3 days; assay type: organism-based; details: in vivo, 72 h, dose 5-20 mg/kg, time 3 day
[35] = Toxicity in ICR mouse assessed as blood urea nitrogen (BUN) level in serum at 5 to 20 mg/kg, ip measured after 3 days; assay type: organism-based; details: in vivo, 72 h, dose 5-20 mg/kg, time 3 day
[36] = Toxicity in ICR mouse assessed as hepatic cords morphology at 5 to 20 mg/kg, ip measured after 3 days by histopathological H and E staining based assay; assay type: organism-based; details: in vivo, 72 h, dose 5-20 mg/kg, time 3 day
[37] = test system: Escherichia coli; test: Antibacterial activity against Escherichia coli ATCC 25922 injected intraperitoneally in ICR mouse assessed as reduction bacterial load in spleen at 10 mg/kg, ip measured after 12 hrs by H and E staining based assay; assay type: functional, organism-based
[38] = test system: Escherichia coli; test: Antibacterial activity against Escherichia coli ATCC 25922 injected intraperitoneally in ICR mouse assessed as reduction bacterial load in kidney at 10 mg/kg, ip measured after 12 hrs by H and E staining based assay; assay type: functional, organism-based
[39] = test system: Escherichia coli; test: Antibacterial activity against Escherichia coli ATCC 25922 injected intraperitoneally in ICR mouse assessed as reduction in symptoms by measuring disorganized hepatic cords in liver at 10 mg/kg, ip measured after 12 hrs by H and E staining based assay; assay type: functional, organism-based
[40] = test system: Escherichia coli; test: Antibacterial activity against Escherichia coli ATCC 25922 injected intraperitoneally in ICR mouse assessed as reduction in symptoms by measuring atrophy of renal glomeruli at 10 mg/kg, ip measured after 12 hrs by H and E staining based assay; assay type: functional, organism-based

CCCCCCCCCC(=O)NCCCC[C@H](N)C(=O)NCC(=O)NCC(=O)NCC(=O)N[C@H](CCCNC(=N)N)C(=O)N[C@@H](CCCNC(=N)N)C(=O)N[C@@H](CCCNC(=N)N)C(=O)N1CCC[C@H]1C(=O)N[C@@H](CSSC[C@H](NC(=O)[C@@H]1CCCN1C(=O)[C@H](CCCNC(=N)N)NC(=O)[C@H](CCCNC(=N)N)NC(=O)[C@@H](CCCNC(=N)N)NC(=O)CNC(=O)CNC(=O)CNC(=O)[C@@H](N)CCCCNC(=O)CCCCCCCCC)C(=O)O)C(=O)O
MIC [1]: 2 µM (≈ 4.56 µg/mL)
MIC [2]: 4 µM (≈ 9.12 µg/mL)
MIC [3]: 4 µM (≈ 9.12 µg/mL)
MIC [4]: 4 µM (≈ 9.12 µg/mL)
MIC [5]: 8 µM (≈ 18.2 µg/mL)
HC10 [6]: 256 µM
IC10 [7]: 256 µM
MIC [8]: 8 µM (≈ 18.2 µg/mL)
Activity [9]: Active; C-C10)C-C Demonstrated Superior Physiological Salt Tolerance In Comparison To (N-C10)C-C
Activity [10]: Active; C-C10)C-C Demonstrated Superior Physiological Salt Tolerance In Comparison To (N-C10)C-C
Activity [11]: Active; C-C10)C-C Demonstrated Superior Physiological Salt Tolerance In Comparison To (N-C10)C-C
Activity [12]: Active; C-C10)C-C Demonstrated Superior Physiological Salt Tolerance In Comparison To (N-C10)C-C
Activity [13]: Active; C-C10)C-C Demonstrated Superior Physiological Salt Tolerance In Comparison To (N-C10)C-C
Activity [14]: Active
Activity [15]: Active
Activity [16]: Active; Negligible Alteration In Mic Values Found
Stability [17]: Stable
Stability [18]: Stable
Activity [19]: Active
Activity [20]: Dose-dependent-effect
Activity [21]: ~40%
Activity [22]: Active
Activity [23]: Dose-dependent-effect
Activity [24]: ~80%
Activity [25]: 100%
fold change (FC) [26]: <=2
Activity [27]: Toxic
Activity [28]: Toxic
Activity [29]: Non-toxic
Activity [30]: Non-toxic
Activity [31]: Non-toxic
Activity [32]: Non-toxic
Activity [33]: Non-toxic
Activity [34]: Non-toxic
Activity [35]: Non-toxic
Activity [36]: Non-toxic
Activity [37]: Active
Activity [38]: Active
Activity [39]: Active
Activity [40]: Active
